{
  "source": "patent US20260199282A1",
  "about": "“METHODS AND COMPOSITIONS FOR IMPROVING DRIVING PERFORMANCE” (priority 2022, published 2026)",
  "system": "participants with narcolepsy",
  "test": "Standardized on-road driving test, narcolepsy study",
  "assay_type": "in vivo, human",
  "settings": "for SDLP, observed mean (SD) / SDLP, median / SDLP, median difference (range), solriamfetol - placebo: day 7, 300 mg/day; for SDLP, median / SDLP, median difference (range), solriamfetol - placebo: mITT",
  "description": "In this randomized, double-blind, placebo-controlled, crossover study, driving performance during a 1-hour on-road driving test was assessed at 2 hours and 6 hours post-dose following 7 days of treatment with solriamfetol (150 mg/day for 3 days, followed by 300 mg/day for 4 days) or placebo. The primary endpoint was standard deviation of lateral position (SDLP) at 2 hours post-dose.\nAt the end of each treatment period, a standardized on-road driving test (Verster & Roth, 2011) was conducted at 2 hours and at 6 hours after administration of drug or placebo (FIG. 1A). For each test (~1 hour in duration), participants drove a specially instrumented vehicle over a 100 km (~62 miles) primary highway circuit; they were accompanied by a licensed driving instructor with access to dual controls (brakes, clutch, accelerator). Participants were instructed to maintain both a steady lateral position between the delineated boundaries of the slower (right) traffic lane and a constant speed of 95 km/h (~59 mph). Participants were permitted to deviate from these instructions only to pass a slower vehicle, to respond to slower traffic ahead, or to exit and reenter the highway at the turnaround point (these events were removed for the purpose of data analysis by 2 experienced editors of the driving data). Vehicle speed and lateral distance to the left-lane line were continuously recorded, and the data stored on an onboard computer. The driving test could be stopped by the participant or by the accompanying driving instructor if considered it unsafe to continue.\nThe primary outcome assessment from the driving tests was standard deviation of lateral position (SDLP) in centimeters—a measure of “weaving” or road-tracking control (Ramaekers, 2017; Verster & Roth, 2011). […] Standard deviation of speed and number of lane drifts (defined as deviations>100 cm from the absolute lateral position within an 8-second window) were also determined from driving test data.\nChange in SDLP was analyzed with a repeated mixed-effects analysis of variance (ANOVA).\nMaximally selected McNemar symmetry analyses (Laska, Meisner, & Wanderling, 2012) were used to detect asymmetry in the distribution of the change in driving performance at 2 hours and 6 hours post-dose. Single McNemar tests were used to analyze the difference in proportions of participants with improved or impaired driving performance at relevant thresholds. Thresholds of 1.0, 1.5, 2.0, 2.5, 3.0, and 3.5 cm were used.\nAdditional secondary efficacy measures (standard deviation of speed, number of lane drifts, and THAT scores) were analyzed using a similar ANOVA method as described for SDLP. No multiplicity adjustments were made in the efficacy analyses for multiple endpoints, and all p values are therefore nominal.",
  "note": "“And” between values parts separate entries of the source, which are not always exact repeats. Identical values can stand only once.",
  "data": [
    {"smiles": "NC(=O)OC[C@H](N)Cc1ccccc1", "note": "[Solriamfetol, (R)-2-amino-3-phenylpropyl carbamate]", "values": [
      {"measurement": "maximum McNemar test, improved vs impaired driving", "setting": "2 hours and 6 hours post-dose, thresholds 1.0 to 3.5 cm", "result": "did not show asymmetry"},
      {"measurement": "number of lane drifts, LS mean (SE)", "setting": "2 hours post-dose", "result": "2.3 (0.8)"},
      {"measurement": "number of lane drifts, LS mean difference vs placebo", "setting": "2 hours post-dose", "result": "−0.98"},
      {"measurement": "standard deviation of speed, LS mean (SE)", "setting": "2 hours post-dose", "result": "2.8 (0.2) km/h"},
      {"measurement": "standard deviation of speed, LS mean difference vs placebo", "setting": "2 hours post-dose", "result": "−0.22", "unit": "km/h"},
      {"measurement": "SDLP, observed mean (SD)", "setting": "2 hours post-dose", "result": "19.0 (3.6) cm and 18.97 cm"},
      {"measurement": "SDLP, median", "setting": "2 hours post-dose", "result": 19.08, "unit": "cm"},
      {"measurement": "SDLP, median difference (range), solriamfetol - placebo", "setting": "2 hours post-dose", "result": "−1.9 (−6.7 to 2.6) cm"},
      {"measurement": "SDLP, median difference (range), solriamfetol - placebo", "setting": "2 hours post-dose, listed as solriamfetol", "result": "−1.9 cm and −1.90 cm"},
      {"measurement": "participants with incomplete driving tests", "setting": "2 hours post-dose, on solriamfetol", "result": "Four"},
      {"measurement": "number of lane drifts, LS mean (SE)", "setting": "6 hours post-dose", "result": "3.6 (0.8)"},
      {"measurement": "number of lane drifts, LS mean difference vs placebo", "setting": "6 hours post-dose", "result": "−0.08"},
      {"measurement": "standard deviation of speed, LS mean (SE)", "setting": "6 hours post-dose", "result": "3.1 (0.2) km/h"},
      {"measurement": "standard deviation of speed, LS mean difference vs placebo", "setting": "6 hours post-dose", "result": "−0.11", "unit": "km/h"},
      {"measurement": "SDLP, observed mean (SD)", "setting": "6 hours post-dose", "result": "19.8 (3.5) cm"},
      {"measurement": "SDLP, median", "setting": "6 hours post-dose", "result": 19.59, "unit": "cm"},
      {"measurement": "SDLP, median difference (range), solriamfetol - placebo", "setting": "6 hours post-dose", "result": "−1.1 (−12.1 to 6.0) cm"},
      {"measurement": "SDLP, median difference (range), solriamfetol - placebo", "setting": "6 hours post-dose, listed as solriamfetol", "result": "−1.1", "unit": "cm"},
      {"measurement": "participants with incomplete driving tests", "setting": "6 hours post-dose, on solriamfetol", "result": "Three"},
      {"measurement": "driving tests stopped", "setting": "on solriamfetol, 7/44 tests", "result": 16, "unit": "%"},
      {"measurement": "participants with ≥1 incomplete test", "setting": "while on solriamfetol, either time point", "result": 5}
    ]}
  ]
}
